In the NIST ThermoML archive (doi:10.1016/j.jct.2012.06.023):

Assay: xn = mol fraction of the nth substance listed
Settings: for surface tension liquid-gas: Wilhelmy plate; for viscosity: 101 kPa, Liquid, Concentric cylinders viscometry

CCCCCCCO [heptan-1-ol] + CN(C)C=O
Settings	surface tension liquid-gas, 298.15 K [mN/m]	surface tension liquid-gas, 303.15 K [mN/m]	surface tension liquid-gas, 308.15 K [mN/m]	surface tension liquid-gas, 313.15 K [mN/m]	viscosity, 298.15 K [mPa·s]	viscosity, 303.15 K [mPa·s]	viscosity, 308.15 K [mPa·s]	viscosity, 313.15 K [mPa·s]
x2 = 0	26.47	25.38	24.33	23.5	5.944	5.069	4.333	3.726
x2 = 0.1852	27.06	25.94	24.87	24.01	3.662	3.061	2.599	2.21
x2 = 0.3466	27.51	26.35	25.25	24.34	2.48	2.044	1.734	1.465
x2 = 0.4928	27.98	26.77	25.64	24.69	1.77	1.452	1.238	1.048
x2 = 0.6004	28.74	27.52	26.38	25.41	1.432	1.183	1.021	0.8722
x2 = 0.6878	29.48	28.25	27.1	26.11	1.224	1.026	0.898	0.7775
x2 = 0.7679	30.53	29.32	28.17	27.17	1.079	0.9233	0.8218	0.7462
x2 = 0.8369	31.64	30.44	29.3	28.3	0.9874	0.8807	0.7949	0.7165
x2 = 0.8984	32.86	31.7	30.57	29.57	0.918	0.8403	0.7775	0.7082
x2 = 0.951	34.06	32.93	31.82	30.82	0.8665	0.8038	0.7541	0.6934

CCCCCO [pentan-1-ol] + CN(C)C=O
Settings	surface tension liquid-gas, 298.15 K [mN/m]	surface tension liquid-gas, 303.15 K [mN/m]	surface tension liquid-gas, 308.15 K [mN/m]	surface tension liquid-gas, 313.15 K [mN/m]	viscosity, 298.15 K [mPa·s]	viscosity, 303.15 K [mPa·s]	viscosity, 308.15 K [mPa·s]	viscosity, 313.15 K [mPa·s]
x2 = 0	24.55	23.6	22.54	21.94	3.5	3.051	2.664	2.335
x2 = 0.0793	24.71	23.72	22.64	22	2.973	2.585	2.259	1.98
x2 = 0.2866	25.53	24.43	23.31	22.57	1.863	1.608	1.414	1.24
x2 = 0.4261	26.4	25.25	24.11	23.3	1.395	1.205	1.069	0.9427
x2 = 0.5048	27.02	25.85	24.69	23.84	1.241	1.076	0.962	0.8525
x2 = 0.6254	28.21	27.01	25.84	24.94	1.069	0.939	0.8498	0.7611
x2 = 0.6638	28.68	27.48	26.31	25.4	1.021	0.9012	0.8193	0.7366
x2 = 0.7952	30.84	29.66	28.51	27.56	0.9068	0.8182	0.7558	0.6895
x2 = 0.8706	32.34	31.19	30.05	29.08	0.8572	0.797	0.7501	0.6882
x2 = 0.9363	33.8	32.67	31.56	30.58	0.8373	0.783	0.7386	0.6836
